In patent US20260355318A1, “MOLECULAR MACHINES FOR TREATMENT OF CANCER, FUNGAL INFECTIONS, OR BACTERIAL INFECTIONS” (priority 2022, published 2026):
Like-named read-outs stand apart in the source and are kept apart here.

Assays:
[1] = Estimated rotation rate after light activation; details: based on known motors with similar core skeletons
[2] = system: E. coli; assay: MIC, E. coli; assay type: cell-based, Escherichia coli BW25113; details: Escherichia coli, read-out: MIC of MM
[3] = system: A. baumannii; assay: MIC, A. baumannii; assay type: cell-based, Acinetobacter baumannii; details: for MIC of MM: A. baumannii, 405 nm light; for MIC: Acinetobacter baumannii, read-out: MIC of MM
Summary of the method: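 Cell suspensions were exposed to compound at 0.3125-40 μM for 30 min in the dark, with agitation, at 30 or 37 °C depending on strain. Each sample was then irradiated with 405 nm light at 146 mW cm^−2 for 5 min (43.8 J cm^−2), inoculated into MHB and incubated overnight. MIC was read as the lowest concentration without visible growth, alongside non-irradiated controls.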

[4] = system: P. aeruginosa; assay: MIC, P. aeruginosa; assay type: cell-based, Pseudomonas aeruginosa; details: Pseudomonas aeruginosa, read-out: MIC of MM
Experimental: (§1) The appropriate volume of an MM stock at 8 mM necessary to achieve a concentration ranging from 0.3125 to 40 μM was pipetted into a 2 mL microcentrifuge tube to which 1 mL of cell suspension prepared as previously described was added. Corresponding negative controls (DMSO only) were prepared in the same way. The mixture was gently mixed by pipetting and incubated in the dark at 30 or 37 ° C, depending on the strain, for 30 min with agitation (220 rpm). Afterward, MM- or DMSO-treated cells were dispensed in one well of a 24-well plate positioned in the center of the light beam (405 nm LED Light, Prizmatix, UHP—F-5-405) placed at the appropriate distance necessary to achieve the desired light intensity of 304 mW cm-2, 146 mW cm2 or 87 mW cm2, as measured with a handheld digital power meter console coupled to an S415C thermal power sensor head (Thorlabs, Newton, MA, USA). The temperature during irradiation was monitored using a thermocouple probe (Model SC-TT-K-30-36-PP; Omega Engineering, Inc., Stanford, CT, USA). Samples were agitated during irradiation. Dark controls were prepared as previously described except that no irradiation was provided.
For MIC determination, samples treated with a range of concentrations of the different MM, as described above and were irradiated one at a time for 5 min at 146 mW cm^−2 (43.8 J cm^−2), after which irradiated aliquots were collected and inoculated into 1 mL MHB in a 2 mL microcentrifuge tube. Samples were incubated overnight at 30 or 37 ° C, depending on the strain, without agitation. Corresponding non-irradiated samples and negative controls (without bacteria) were also included. The following day, cultures were inspected for growth and the MIC was identified. The experimental procedure used to determine the MIC of visible light-activated MMs is schematically depicted in FIG. 26.

[5] = system: B. cereus; assay: MIC, B. cereus; assay type: cell-based; details: Bacillus cereus, read-out: MIC of MM
Experimental: as §1, with “provided. […]” for “provided.”

[6] = system: E. coli; assay: Time-kill / light-dose experiments, E. coli; assay type: cell-based, Escherichia coli; details: E. coli; for light dose for complete eradication: highest concentration of MM (5 μM), 405 nm
Experimental: (§2) Serial dilutions of irradiated cell suspensions were prepared in PBS. A volume of 10 AL of the appropriate serial dilutions was spot-plated onto LB agar plates. Following overnight incubation at 30 or 37 ° C, depending on the strain, bacterial viability was assessed as colony forming units (CFU) per mL. Results were expressed as log (N/NO) whereby N is the CFU mL^−1 at each irradiation time point and NO is the initial CFU mL^−1 of the corresponding sample. Only dilutions that yielded 10-100 colonies were counted.

[7] = system: S. aureus; assay: Time-kill / light-dose experiments, S. aureus; assay type: cell-based, Staphylococcus aureus; details: 0.625 to 5 μM of MM, 405 nm
Experimental: as §2

[8] = system: A. baumannii, E. coli, P. aeruginosa, S. aureus; assay: Resistance development / cross-resistance in bacteria (serial passaging); assay type: cell-based
Experimental: Isolation of MM-resistant mutants of E. coli, A. baumannii, P. aeruginosa, and S. aureus was attempted by irradiating cell suspensions treated with 4×MIC of the different MMs for 5 min at 146 mW cm^−2 (43.8 J cm^−2). No visible colonies could be obtained for any of the strains tested.
For resistance development by sequential passaging (Ling et al., 2015), A. baumannii, E. coli, P. aeruginosa, and S. aureus cells in exponential phase were collected and processed as described for MIC determination. Cells were incubated at 37 ° C for 24 h after which they were inspected for growth. Cells able to grow at 0.5×MIC were collected and re-challenged with a range of MM concentrations and then irradiated. The antibiotics ciprofloxacin and gentamicin (for Gram-negatives) or ciprofloxacin and tobramycin (for S. aureus) were used as controls.

[9] = system: E. coli; assay: Electron microscopy (TEM, SEM) of E. coli; assay type: cell-based, Escherichia coli; details: 0.5×MIC, 43.8 J cm^−2
Experimental: E. coli was cultured to mid-log phase in MHB media. Cells were collected and resuspended in PBS (1×) to an OD600 of ≈0.05. […] Cells were then irradiated for 5 min at 146 mW cm-2 (43.8 J cm^−2) after which cells were fixed with Karnovsky's fixative (Carlson et al., 2003), and post-fixed with 1% osmium, and dehydrated with a series of ethanol washes. For TEM, samples were embedded in epoxy resin (PolyBed 812; Polyscienses, Inc., Warrington, PA, United States) after dehydration in a graduated 50-100% ethanol concentration series of washes. Ultrathin sections (65 nm) were cut using a Leica EM UC7 ultramicrotome (Leica Microsystems, Wetzlar, Germany) and post-stained with uranyl acetate and lead citrate. Specimens were observed using a JEOL JEM2100 TEM ([…], Japan) operating at an accelerating voltage of 80 kV. For SEM, following ethanol dehydration samples were critical point dried using a Leica EM CPD300 (Leica Microsystems, Wetzlar, Germany), sputter-coated with 10 nm of gold, and imaged with an FEI Apreo SEM (FEI Apreo, ThermoFisher Scientific, Waltham, MA) using a secondary electron detector.

[10] = system: normal human dermal fibroblasts (NHDFs); assay: Toxicity to NHDF (CellTiter-Glo); assay type: cell-based; details: 5 min, 405 nm light 146 mW cm^−2, 5 min, read-out: IC50 (NHDF viability)
Experimental: Biocompatibility of MM with primary NHDF and HEK293T cells was assessed using the CellTiter-Glo® Luminescent Cell Viability Assay (Promega), per the manufacturer's instructions. The MM concentrations that reduced cell viability by 50% (IC50) were identified and the therapeutic index was calculated as the ratio between the IC50 and the MIC at a light intensity of 146 mW cm^−2.

[11] = E. coli, Table 9, 405 nm light 43.8 J cm^−2
[12] = Escherichia coli, read-out: MIC of MM in antibiotic-resistant E. coli
[13] = Staphylococcus aureus, S. aureus Gentamycin^R, one line per passage 1-20, read-out: MIC of MM in antibiotic-resistant S. aureus

| SMILES | estimated rotation rate after light activation [1] | MIC ([2]; E. coli BW25113, 405 nm light 43.8 J cm^−2) | MIC [2, 11] | MIC of MM [3] | MIC [3] | MIC [4] | MIC [5] | light dose for complete eradication [6] | light dose for complete eradication [7] | MIC [8, 12] | MIC [8, 13] | cell morphology (TEM) [9] | IC50 [10] | time to reduce cell number to limit of detection ([6]; 2×MIC, 146 mW cm^−2 405 nm) |
| --- | --- | --- | --- | --- | --- | --- | --- | --- | --- | --- | --- | --- | --- | --- |
| C[C@@H]1Cc2ccc3ccccc3c2/C1=C1\c2ccccc2Sc2cc(NCCN(C)C)ccc21 [MM 1, N^1N^1-dimethyl-N^2-(9-(2-methyl-2,3-dihydro-1H-cyclopenta[a]naphthalen-1-ylidene)-9H-thioxanthen-3-yl) ethane-1,2-diamine] | 3 MHz | 1.25 µM | 1.25 µM | 2.5 µM | 2.5 µM | 0.625 µM | 10 µM | at least 40 J cm^−2 | 16 J cm^−2 | 4 µM | 0.125 µM | substantial changes in cell morphology | 5 µM |  |
| C[C@@H]1Cc2ccc3ccccc3c2/C1=C1\c2ccccc2Sc2cc(NCCN)ccc21 (racemic) [MM 6, N^1-(9-(2-methyl-2,3-dihydro-1H-cyclopenta[a]naphthalen-1-ylidene)-9H-thioxanthen-3-yl)ethane-1,2-diamine] | 3 MHz |  | 2.5 µM | 2.5 µM | 2.5 µM | 0.625 µM | 10 µM | at least 40 J cm^−2 | 16 J cm^−2 | 0.5 µM | 0.125 µM | substantial changes in cell morphology | 10 µM | 4 min |
